Measurements reported in the supplement of paper PMC11061612.

How the values were obtained:
[1] = system: 42-MG-BA (Glioblastoma); assay: Bliss excess, mean over the matrix (fraction); higher = more synergy
Method in brief: (§1)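 Cell lines in DMEM/F12 or RPMI with 10% FBS were plated in 1536-well plates, held 24 hours at 37°C, 5% CO2, then given two-drug dose matrices for 72 hours (DMSO typically 0.2%). Viability was read by CellTiter-Glo 2.0 luminescence and scaled as inhibition from 0 (vehicle wells) to 1 (blank wells). Combination Emax is the second-highest inhibition in the matrix; Bliss excess is observed combination effect minus expected EA + EB − EA·EB, EA and EB being single-agent effects.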

[2] = system: B-CPAP (Thyroid Gland Carcinoma); assay: as above
Method in brief: as §1

[3] = system: COLO-205 (Colorectal Carcinoma); assay: as above
Method in brief: as §1

[4] = system: DEL (T-Cell Non-Hodgkin's Lymphoma); assay: as above
Method in brief: as §1

[5] = system: HCC1806 (Breast Carcinoma); assay: as above
Method in brief: as §1

[6] = system: HT-1376 (Bladder Carcinoma); assay: as above
Method in brief: as §1

[7] = system: Hs-578-T (Breast Carcinoma); assay: as above
Method in brief: as §1

[8] = system: HuP-T4 (Pancreatic Carcinoma); assay: as above
Method in brief: as §1

[9] = system: KURAMOCHI (Ovarian Carcinoma); assay: as above
Method in brief: as §1

[10] = system: MDA-MB-361 (Breast Carcinoma); assay: as above
Method in brief: as §1

[11] = system: NB10 (Neuroblastoma); assay: as above
Method in brief: as §1

[12] = system: Ramos-2G6-4C10 (Burkitt's Lymphoma); assay: as above
Method in brief: as §1

[13] = system: SNU-5 (Gastric Carcinoma); assay: as above
Method in brief: as §1

[14] = system: UM-UC-3 (Bladder Carcinoma); assay: as above
Method in brief: as §1

[15] = system: CAL-148 (Breast Carcinoma); assay: combination Emax (second highest fraction inhibited in the dose matrix, 72 h); higher = more inhibition; extreme values may be limits of the assay
Method in brief: as §1

[16] = system: ES4 (Ewing's Sarcoma); assay: as above
Method in brief: as §1

[17] = system: Hs-578-T (Breast Carcinoma); assay: as above
Method in brief: as §1

[18] = system: KP-1N (Pancreatic Carcinoma); assay: as above
Method in brief: as §1

[19] = system: LB831-BLC (Bladder Carcinoma); assay: as above
Method in brief: as §1

[20] = system: NCI-H82 (Small Cell Lung Carcinoma); assay: as above
Method in brief: as §1
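For Bliss excess, mean over the matrix in this document: after 72 h of two-drug dosing.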

Structure (SMILES)	Bliss excess [1]	Bliss excess [2]	Bliss excess [3]	Bliss excess [4]	Bliss excess [5]	Bliss excess [6]	Bliss excess [7]	Bliss excess [8]	Bliss excess [9]	Bliss excess [10]	Bliss excess [11]	Bliss excess [12]	Bliss excess [13]	Bliss excess [14]	combination Emax [15]	combination Emax [16]	combination Emax [17]	combination Emax [18]	combination Emax [19]	combination Emax [20]
CN(C)CCCOc1ccc(-c2ccc3ncc4c(c3c2)n(C2CCOCC2)c(=O)n4C)cn1 [AZD0156] + C=CCn1c(=O)c2cnc(Nc3ccc(N4CCN(C)CC4)cc3)nc2n1-c1cccc(C(C)(C)O)n1 [AZD1775] (first compound max 1 µM, partner max 1 µM)	0.0275	-0.0255	-0.0229	-0.0036	-0.0219	-0.134	-0.0457	-0.022	-0.031	-0.006	-0.0093	0.0365	-0.0705	-0.007	0.966	0.438	0.784	0.471	0.388	0.901
CN(C)CCCOc1ccc(-c2ccc3ncc4c(c3c2)n(C2CCOCC2)c(=O)n4C)cn1 [AZD0156] + CCN(CCO)CCCOc1ccc2c(Nc3cc(CC(=O)Nc4cccc(F)c4)[nH]n3)ncnc2c1 [AZD2811] (first compound max 1 µM, 7x7, partner max 1 µM)	0.0813	-0.0224	0.0035	0.117	-0.003	-0.0665	-0.0708	-0.005	-0.0357	-0.0078	-0.0464	0.0919	0.0036	-0.0079	0.935	0.159	0.565	0.293	0.0797	0.45
CN(C)CCCOc1ccc(-c2ccc3ncc4c(c3c2)n(C2CCOCC2)c(=O)n4C)cn1 [AZD0156] + C[C@@H]1COCCN1C2=NC(=NC(=C2)C3(CC3)[S@](=N)(=O)C)C4=C5C=CNC5=NC=C4 [AZD6738] (first compound max 1 µM, 7x7, partner max 10 µM)	0.0224	0.027	-0.0057	0.0293	0.0241	-0.0193	-0.0157	0.0118	-0.0119	0.0366	-0.038	0.0933	-0.0347	0.0101	0.791	0.844	0.885	0.399	0.23	0.948
CN(C)CCCOc1ccc(-c2ccc3ncc4c(c3c2)n(C2CCOCC2)c(=O)n4C)cn1 [AZD0156] + O=C(c1cc(Cc2n[nH]c(=O)c3ccccc23)ccc1F)N1CCN(C(=O)C2CC2)CC1 [Olaparib] (first compound max 3 µM, partner max 3 µM)	0.0602	0.0785	0.125	0.312	0.191	-0.0417	0.0937	0.125	-0.0737	0.0254	0.334	0.0928	0.015	0.0739	0.604	0.658	0.519	0.277	0.26	0.382
C=CCn1c(=O)c2cnc(Nc3ccc(N4CCN(C)CC4)cc3)nc2n1-c1cccc(C(C)(C)O)n1 [AZD1775] + C1CN(CCC1(C(=O)N[C@@H](CCO)C2=CC=C(C=C2)Cl)N)C3=NC=NC4=C3C=CN4 [Capivasertib] (first compound max 3 µM, partner max 3 µM)	-0.0419	0.0065	0.102	0.0666	0.0151	0.0513	-0.102	-0.0779	-0.072	-0.0156	-0.18	0.0099	-0.0655	0.0405	0.92	0.521	0.841	0.633	0.75	0.884
C=CCn1c(=O)c2cnc(Nc3ccc(N4CCN(C)CC4)cc3)nc2n1-c1cccc(C(C)(C)O)n1 [AZD1775] + C[C@@H]1COCCN1C2=NC(=NC(=C2)C3(CC3)[S@](=N)(=O)C)C4=C5C=CNC5=NC=C4 [AZD6738] (first compound max 1 µM, partner max 10 µM)	0.0384	0.0499	0.141	0.0252	0.0166	-0.0483	-0.0127	0.0849	-0.0355	-0.0113	0.0822	0.0915	–	0.0606	1	0.826	0.921	0.397	0.72	0.979
C=CCn1c(=O)c2cnc(Nc3ccc(N4CCN(C)CC4)cc3)nc2n1-c1cccc(C(C)(C)O)n1 [AZD1775] + O=C(c1cc(Cc2n[nH]c(=O)c3ccccc23)ccc1F)N1CCN(C(=O)C2CC2)CC1 [Olaparib] (first compound max 1 µM, partner max 10 µM)	0.0093	0.0393	-0.0149	0.0023	-0.0294	-0.0509	-0.0965	0.0075	-0.0358	-0.0357	-0.0088	-0.0238	-0.0833	0.0251	0.978	0.563	0.839	0.359	0.607	0.851
CCN(CCO)CCCOc1ccc2c(Nc3cc(CC(=O)Nc4cccc(F)c4)[nH]n3)ncnc2c1 [AZD2811] + C=CCn1c(=O)c2cnc(Nc3ccc(N4CCN(C)CC4)cc3)nc2n1-c1cccc(C(C)(C)O)n1 [AZD1775] (first compound max 1 µM, partner max 1 µM)	0.081	-0.0363	0.008	0.0636	0.0012	-0.0947	-0.0212	0.0274	-0.0602	-0.0044	-0.0399	0.0096	-0.0294	-0.0171	0.994	0.377	0.775	0.401	0.456	0.901
CCN(CCO)CCCOc1ccc2c(Nc3cc(CC(=O)Nc4cccc(F)c4)[nH]n3)ncnc2c1 [AZD2811] + C[C@@H]1COCCN1C2=NC(=NC(=C2)C3(CC3)[S@](=N)(=O)C)C4=C5C=CNC5=NC=C4 [AZD6738] (first compound max 1 µM, 7x7, partner max 10 µM)	0.037	-0.0276	-0.0872	0.0156	-0.014	-0.0566	-0.0811	0.0305	-0.0649	-0.0816	-0.056	-0.0008	-0.0209	0.0276	1	0.666	0.839	0.199	0.238	0.922
CCN(CCO)CCCOc1ccc2c(Nc3cc(CC(=O)Nc4cccc(F)c4)[nH]n3)ncnc2c1 [AZD2811] + O=C(c1cc(Cc2n[nH]c(=O)c3ccccc23)ccc1F)N1CCN(C(=O)C2CC2)CC1 [Olaparib] (first compound max 1 µM, 7x7, partner max 10 µM)	0.009	0.0104	0.0075	0.0328	0.0298	-0.0499	-0.0192	-0.0055	-0.0317	-0.0133	-0.0445	0.0573	-0.0237	0.0332	0.966	0.47	0.622	0.0679	0.268	0.615
COc1nnc2ccc(N3CCC(c4ccc(OCCN5CCN(C)C(=O)[C@H]5C)cc4)CC3)nn12 [AZD5153] + CN(CC[C@H](CSC1=CC=CC=C1)NC2=C(C=C(C=C2)S(=O)(=O)NC(=O)C3=CC=C(C=C3)N4CCC(CC4)[C@H](C5=CC=CC=C5C6=CC=C(C=C6)Cl)O)S(=O)(=O)C(F)(F)F)CCO [AZD4320] (first compound max 1 µM, 7x7, partner max 1 µM)	0.101	0.0375	0.0335	0.0204	0.0257	–	–	0.0267	–	0.0967	–	–	0.0566	–	–	0.795	–	0.53	–	–
Cc1c2c(nn1C)CSCc1cc(n(C)n1)CSc1cc(c3ccccc3c1)OCCCc1c(C(=O)O)n(C)c3c-2c(Cl)ccc13 [AZD5991] + Cn1cnc2c(F)c(Nc3ccc(Br)cc3Cl)c(C(=O)NOCCO)cc21 [Selumetinib] (first compound max 1 µM, 7x7, partner max 3 µM)	-0.03	-0.0219	0.0145	0.0049	0.0254	0.0144	-0.0568	0.113	0.031	-0.0168	0.0122	-0.0074	0.0262	0.0332	0.329	–	0.54	0.189	0.392	0.922
CS(=O)(=O)CCNCc1ccc(-c2ccc3ncnc(Nc4ccc(OCc5cccc(F)c5)c(Cl)c4)c3c2)o1 [Lapatinib] + NC1(c2ccc(-c3nc4ccn5c(=O)[nH]nc5c4cc3-c3ccccc3)cc2)CCC1 [MK-2206] (first compound max 10 µM, 7x7, partner max 10 µM)	–	0.0102	–	–	0.0574	-0.0333	0.0381	–	0.0264	–	-0.0423	0.0215	0.0404	-0.0065	0.996	–	0.936	–	0.39	0.932
CCc1c2c(nc3ccc(O)cc13)-c1cc3c(c(=O)n1C2)COC(=O)[C@]3(O)CC [SN-38] + O=C(c1cc(Cc2n[nH]c(=O)c3ccccc23)ccc1F)N1CCN(C(=O)C2CC2)CC1 [Olaparib] (first compound max 0.3 µM, 7x7, partner max 10 µM)	0.0749	0.0148	0.0491	0.0923	0.0498	-0.0464	0.0807	0.0913	-0.0232	–	-0.0154	0.0338	–	0.0493	0.96	0.767	0.709	0.645	0.85	0.787
C[C@@H](c1ccc2nccn2c1)n1nnc2ncc(-c3cnn(C)c3)nc21 [Savolitinib] + CN(CC[C@H](CSC1=CC=CC=C1)NC2=C(C=C(C=C2)S(=O)(=O)NC(=O)C3=CC=C(C=C3)N4CCC(CC4)[C@H](C5=CC=CC=C5C6=CC=C(C=C6)Cl)O)S(=O)(=O)C(F)(F)F)CCO [AZD4320] (first compound max 1 µM, 7x7, partner max 1 µM)	-0.0553	0.0041	-0.043	-0.0318	-0.0031	–	–	-0.0544	–	-0.0425	–	–	0.029	–	–	0.557	–	0.175	–	–
